We go through 26 molecules from ChEMBL document CHEMBL5325479, “Synthesis and biological evaluation of sulfonylpyridine derivatives as potential anti-chlamydia agents” (Bioorg Med Chem, 2023).

≈ marks a conversion by molar mass, not a printed value. Calls of active or inactive are those of the source. The rule behind the calls is not given here.

Test system in the first data set: not listed separately
The data set can be described thus: Stability of the compound in simulated gastric fluid at pH 1.2 measured after 24 hrs by HPLC analysis. The format is ADME. To be noted: simulated gi fluid, pH 1.2, 24 h.
For `CC(C)(C(=O)NCCCSc1ccc(Cl)cc1)S(=O)(=O)c1ccc(Br)cn1`, the Stability entry is on record as “Stable”.

The test system of the next data set is Chlamydia trachomatis. The data set can be described thus: Anti-chlamydia activity against Chlamydia trachomatis serovar L2 infected in human HEp-2 cells assessed as inhibition of inclusion growth measured at 0.78 to 50 ug/ml treated 8 hrs POI followed measured after 16 hrs by immunofluorescence assay. The conditions noted are these: dose 0.78-50 µg/ml. The format is functional, organism-based.
With `CC(=O)N(CCNC(=O)C(C)(C)S(=O)(=O)c1ccc(C(F)(F)F)cn1)c1ccccc1`, the inhibition entry is “inactive”. For `COc1ccccc1OCCCNC(=O)C(C)(C)S(=O)(=O)c1ccc(C(F)(F)F)cn1`, the inhibition entry was “inactive”.

For `CN(CCSc1ccc(Cl)cc1)C(=O)C(C)(C)S(=O)(=O)c1ccc(C(F)(F)F)cn1`, the inhibition result was “inactive”. Turning to `CC(C)(C(=O)NCCOc1ccc([N+](=O)[O-])cc1)S(=O)(=O)c1ccc(C(F)(F)F)cn1`, the inhibition result is “inactive”. With `CC(C)(C(=O)NCCc1ccncc1)S(=O)(=O)c1ccc(C(F)(F)F)cn1`, the inhibition entry was “inactive”. Consider `Cc1ccc(OCCNC(=O)C(C)(C)S(=O)(=O)c2ccc(Br)cn2)cc1`, for which the inhibition entry is “inactive”. On the same count and under the same terms, next, `CC(C)(C(=O)NCCCC1=NC2C=CC=CC2=N1)S(=O)(=O)c1ccc(C(F)(F)F)cn1` (stereo unspecified): “inactive”.

Test system in another data set: not listed separately
The data set is described as follows: Cytotoxicity against human HEC-1-A cells assessed as cell survival at 128 ug/ml measured after 24 hrs by XTT assay. It is filed as toxicity, cell-based. To be noted: at 128 µg/mL, read-out: Survival. A general note: Formazan colour is commonly taken as a measure of viable cells.
On to `CC(C)(C(=O)NCCCSc1ccc(Cl)cc1)S(=O)(=O)c1ccc(Br)cn1`, for which the viability at 24 h, 128 ug/ml amounted to 100%.

In another data set the test system is Escherichia coli. The data set is described as follows: Antibacterial activity against Escherichia coli K12 assessed as bacterial death measured upto 256 ug/ml. It is filed as functional, organism-based. The conditions noted are these: dose <= 256.0 µg/ml.
As to `CC(C)(C(=O)NCCCSc1ccc(Cl)cc1)S(=O)(=O)c1ccc(Br)cn1`, the result was inactive.

Another data set relates to Chlamydia trachomatis. The data set can be described thus: Anti-chlamydia activity against Chlamydia trachomatis serovar L2 infected in human HEp-2 cells assessed as inhibition of inclusion growth measured treated 8 hrs POI followed measured after 16 hrs by immunofluorescence assay. The format is functional, organism-based. The conditions noted are these: serovar L2, HEp-2.
One may read the IC50 as the midpoint of a concentration-inhibition curve. On to `CC(C)(C(=O)NCCSc1cccc(Cl)c1)S(=O)(=O)c1ccc(C(F)(F)F)cn1`, for which the IC50 worked out at 17.9 µg/mL (≈ 38.3 µM). As to `COc1ccc(OCCNC(=O)C(C)(C)S(=O)(=O)c2ccc(C(F)(F)F)cn2)cc1`, the half-maximal inhibitory concentration (IC50) was found to be 42.2 µg/mL (≈ 94.4 µM). On to `Cc1ccccc1OCCNC(=O)C(C)(C)S(=O)(=O)c1ccc(C(F)(F)F)cn1`, for which the IC50 was determined as 28.9 µg/mL (≈ 67.2 µM).

`Cc1ccc(SCCNC(=O)C(C)(C)S(=O)(=O)c2ccc(C(F)(F)F)cn2)cc1`: the IC50 is 23.5 µg/mL (≈ 52.6 µM). With `Cc1ccccc1OCCCNC(=O)C(C)(C)S(=O)(=O)c1ccc(C(F)(F)F)cn1`, the IC50 was 20.4 µg/mL (≈ 46 µM). Turning to `COc1ccccc1OCCNC(=O)C(C)(C)S(=O)(=O)c1ccc(C(F)(F)F)cn1`, the 50% inhibitory concentration (IC50) is 39.8 µg/mL (≈ 89.2 µM). Take `CC(C)(C(=O)NCCCSc1ccc(Cl)cc1)S(=O)(=O)c1ccc(C(F)(F)F)cn1`: the half-inhibitory concentration (IC50) amounted to 3.88 µg/mL (≈ 8.07 µM). `CC(C)(C(=O)NCCCSc1ccccc1)S(=O)(=O)c1ccc(C(F)(F)F)cn1`: the IC50 was 31.4 µg/mL (≈ 70.3 µM).

Regarding `CC(C)(C(=O)NCCCSc1cccc(Cl)c1)S(=O)(=O)c1ccc(C(F)(F)F)cn1`, the IC50 was 14.8 µg/mL (≈ 30.7 µM). `Cc1ccccc1SCCCNC(=O)C(C)(C)S(=O)(=O)c1ccc(C(F)(F)F)cn1`: the IC50 came to 32.5 µg/mL (≈ 70.7 µM).

Turning to `Cc1ccccc1OCCNC(=O)C(C)(C)S(=O)(=O)c1ccc(Br)cn1`, the IC50 came out at 18.3 µg/mL (≈ 41.5 µM).

Consider `CC(C)(C(=O)NCCNc1ccccc1)S(=O)(=O)c1ccc(Br)cn1`, for which the IC50 was 11.7 µg/mL (≈ 27.3 µM).

Consider `Cc1ccccc1SCCNC(=O)C(C)(C)S(=O)(=O)c1ccc(C(F)(F)F)cn1`, for which the IC50 amounted to 17.8 µg/mL (≈ 39.8 µM). Still for that read-out and setting: for `CC(C)(C(=O)NCCNc1ccccc1)S(=O)(=O)c1ccc(C(F)(F)F)cn1` the value was 14.2 µg/mL (≈ 34.3 µM). Same read-out and setting: next, `CC(C)(C(=O)NCCCSc1ccc(Cl)cc1)S(=O)(=O)c1ccc(Br)cn1`: 2.33 µg/mL (≈ 4.74 µM); `Cc1ccccc1OCCCNC(=O)C(C)(C)S(=O)(=O)c1ccc(Br)cn1`: 3.47 µg/mL (≈ 7.62 µM); `Cc1ccc(SCCCNC(=O)C(C)(C)S(=O)(=O)c2ccc(Br)cn2)cc1`: 16.1 µg/mL (≈ 34.2 µM). As for `CC(C)(C(=O)NCCCOc1ccc(Cl)cc1)S(=O)(=O)c1ccc(C(F)(F)F)cn1`, the IC50 was 26.1 µg/mL (≈ 56.2 µM).

On to `Cc1ccc(OCCNC(=O)C(C)(C)S(=O)(=O)c2ccc(C(F)(F)F)cn2)cc1`, for which the concentration for half-maximal inhibition (IC50) was 29.8 µg/mL (≈ 69.3 µM).

A further data set has as its system HEp-2. The data set can be described thus: Cytotoxicity against human HEp-2 cells assessed as cell viability at 4 to 128 ug/ml measured after 24 hrs by XTT assay. The conditions noted are these: hep-2, 24 h, dose 4-128 µg/ml. The format is toxicity, cell-based.
Consider `CC(C)(C(=O)NCCCSc1ccc(Cl)cc1)S(=O)(=O)c1ccc(Br)cn1`, for which the Activity result is on record as “Toxic”.

For another data set, the system named is Staphylococcus aureus. The data set can be described thus: Antibacterial activity against Staphylococcus aureus USA 300 JE2 assessed as bacterial death measured upto 256 ug/ml. To be noted: dose <= 256.0 µg/ml. The format is functional, organism-based.
In the case of `CC(C)(C(=O)NCCCSc1ccc(Cl)cc1)S(=O)(=O)c1ccc(Br)cn1`, the outcome was inactive.
